Measurements published in ChEMBL document CHEMBL5727273, “Heteroaryldiazepine derivatives as RSV inhibitors” (2019).

Assay: RSV assay: Following extensive parameter testing, the final assay is run as follows: HEp-2 cells are seeded into the inner 60 wells of a 96-well plate at 8,000 cells per well in a volume of 50 μL using Growth Media (DMEM without phenol red, 1% L-Glut, 1% Penn/Strep, 1% nonessential amino acids, 10% FBS). 2-fold serial dilutions of control and test compounds are added to the wells in duplicate in a total volume of 25 μL. Viral stock is then added to the wells in a volume of 25 μL, bringing the total volume of each well to 100 μL. Each 96-well plate has a control column of 6 wells with cells and virus but no compound (negative control, max CPE), a column with cells but no compound or virus (positive control, minimum CPE), and a column with no cells or virus or compound (background plate/reagent control). The control wells with cells but no virus are given an additional 25 uL of growth media containing an equal quantity of sucrose as those wells receiving the viral stock in order to keep consistent in media and volume conditions. The outer wells of the plate are filled with 125 μL of growth media to act as a thermal and evaporative moat around the test wells. Following a 4-day incubation period, the plates are read using ATPlite (50 uL added per well), which quantifies the amount of ATP (a measure of cell health) present in each well. Assay plates are read using the Envision luminometer.

Row | Compound | EC50 (HEp-2) | EC50
1 | O=C1Nc2ncccc2C(c2ccccc2)=NC1Nc1nnc(-c2ccc(F)cc2)o1 (centres undefined) | > 0.8 µM | –
2 | O=C(NC1N=C(c2ccccc2)c2ccsc2NC1=O)OCc1ccccc1 (centres undefined) | 0.6 µM | –
3 | NC1N=C(c2ccccc2)c2sccc2NC1=O (centres undefined) | 0.6 µM | –
4 | O=C1Nc2cccnc2C(c2ccccc2)=NC1Nc1nnc(-c2ccccc2)o1 (centres undefined) | > 0.8 µM | –
5 | Cc1sc2c(c1C)C(c1ccccc1)=NC(Nc1nnc(-c3ncc(C(F)(F)F)cc3N3CCOCC3)o1)C(=O)N2 (centres undefined) | 0.6 µM | > 0.8 µM
6 | Cc1cc(C(=O)c2ccccc2)c(N)s1 | < 0.4 µM | > 0.8 µM
7 | O=C1Nc2cnccc2C(c2ccccc2)=NC1Nc1nnc(-c2ccc(F)cc2)o1 (centres undefined) | > 0.8 µM | –
